Data set [1] in a line: HepG2 xenograft model, survival, body weight and side effects. The following applies: for Body weight (g) initial / Body weight (g) end: mean (95% CI); for Body weight (g) end: end of 24 d treatment.
Description: 5×10^6 HepG2 cells were suspended in 100 μl serum-free medium and subcutaneously (s.c.) inoculated into the dorsal flanks of nude mice. When tumors reached 5-10 mm in diameter, mice were randomly divided into 4 groups (n=5). […] Vehicle alone and Sorafenib were used as the negative and positive control respectively. Tumor volumes and body weight were measured once every two days. Tumor volume was calculated as [(Length×Width×Height)±2]. Treatment was continued for 24 d. Finally, all mice were sacrificed and tumors were excised. Tumor weight was recorded.
The next data set concerns Bel-7404 cells. The data set can be described thus: MTT cell viability assay, Bel-7404. Format: cell-based, human. The protocol:
(§1) Cell viability was measured by 3-(4,5-Dimethylthiazol-2-yl)-2,5-diphenyltetrazolium bromide (MTT) assay. 1×10^3 Cells were seeded in triplicate on a 96 well plate and were allowed to grow for indicated time points. At each time point a set of cells were incubated with 0.5 mg/ml MTT diluted in 1×PBS. After 2 to 4 h incubation, the MTT solution was removed. The insoluble MTT was dissolved in DMSO. Absorbance at 570 nm was measured by an ELISA plate reader.

For data set [2], the system named is Cyclin D1 and Bcl-2. The data set can be described thus: qRT-PCR of Cyclin D1 and Bcl-2 in xenografted tumors. In kind it is in vivo, nude mice. The following applies: excised tumors after 24 d gavage. How it is done: (§2) Total RNA from cell cultures and HCC xenograft tumors were extracted using Trizol (Invitrogen) according to manufacturer's protocols. Total RNAs were dissolved into nuclease-free ddH2O. For protein extraction, cells and HCC xenograft tumors were lysed in 1×RIPA buffer with 1 mM PMSF and 1× complete protease inhibitor cocktail (Roche, Indianapolis, Ind.). Both RNA and protein were stored at −80° C.
(§3) Total RNA was reversely transcribed into cDNAs using High Capacity cDNA Reverse Transcription Kit (Applied Biosystems, Foster city, CA, USA) and nude RT kit (Invitrogen) individually. qRT-PCR was performed using SYBR Green PCR master mix (TaKaRa, Dalian, China). GAPDH was used as an endogenous control. For measuring miR-34a expression level, qPCR was performed by using SYBR Green PCR master mixture (Invitrogen) and U6 was used as the internal control. All samples were normalized to internal controls and fold changes were calculated by relative quantification (2^−ΔΔct).
Tumor volume was calculated as [(Length×Width×Height)[…]]. Treatment was continued for 24 d. Finally, all mice were sacrificed and tumors were excised. Tumor weight was recorded.
(Quantitative PCR measures a nucleic acid by following its amplification.)

The next data set concerns Hep3B cells. The data set is described as follows: MTT cell viability assay, Hep3B. In kind it is cell-based, human. The following applies: different concentrations and time points. The protocol:
as §1
For orientation: Formazan colour is commonly taken as a measure of viable cells.

Data set [3] relates to p53. The data set is described as follows: p53 expression by RT-PCR in HCC cells. In kind it is cell-based, human. The following applies: HepG2, Huh7 and Bel-7404 cells, 10 μM (FIG. 9A). The protocol: as §3
Data set [4] deals with human umbilical vein endothelial cells (HUVECs). The data set is described as follows: In vitro tube formation assay. In kind it is cell-based. The following applies: ECM gel, 4 h. How it is done: The in vitro tube formation assay with human umbilical vein endothelial cells (HUVECs) was performed using the in vitro Angiogenesis Assay Kit (Cell Biolabs). HUVECs were plated at the density of 2×10^4/well and treated with Dimethyl sulfoxide (DMSO) or Rubone ([…] or 2 μM) respectively for 24 h. HUVECs were then seeded onto the ECM gel surface and cultured for 4 h. Then, 100 μl 1× Staining Solution was applied to each well and incubated 30 min at 37° C. and images were captured with an Olympus SC35 camera (Olympus America, Inc., Melville, N.Y.). Tube formation was quantified by counting the number of branching points on each image.

Data set [5] concerns Cyclin D1 and Bcl-2. The data set is described as follows: Expression of miR-34a targets Cyclin D1 and Bcl-2 (qRT-PCR, western blotting) in HCC cells. The following applies: 10 μM, 48 h (RNA) or 72 h (protein). In kind it is cell-based, human. How it is done:
as §2, §3
Protein quantification was performed using BCA protein assay kit (Thermo Fisher Scientific, Rockford, Ill., USA). 25-50 μg protein was separated by SDS-PAGE (sodium dodecyl sulfate-polyacrylamide gel electrophoresis) and transferred to PVDF membranes (Bio-Rad). […] Protein expression was detected by autoradiography using Amersham ECL Plus™ Western Blotting Detection Reagents (GE Healthcare, Uppsala, Sweden).

Data set [6] concerns CDK6, FOXP, Notch1 and Sirtuin. The data set is described as follows: Expression of other miR-34a targets by qRT-PCR in HCC cells. The following applies: 10 μM, 48 h. Format: cell-based, human. How it is done:
as §2, §3

The test system of a further data set is HCC cells. The data set is described as follows: MTT cell viability assay, HCC cell lines. Format: cell-based, human. The following applies: 5 μM. The protocol:
as §1

In data set [7] the target is p53 (Homo sapiens, UniProt P04637). The data set can be described thus: ChIP assay, p53 occupancy on miR-34a promoter. The following applies: HepG2 cells, 10 μM. In kind it is cell-based. How it is done: (§4) ChIP assay was performed as described before (26). Cross-linked chromatin were incubated overnight with anti-H3 (Cat #: 9003, Cell Signaling Technology), IgG (Cat #: 9003, Cell Signaling Technology), p53 (Cat #: sc-106, Santa Cruz, Cambridge, Mass.). The precipitated DNA were quantitated absolutely by real-time PCR and normalized by respective 2% input.

Data set [8] concerns p53. The data set is described as follows: ChIP assay, p53 occupancy on miR-34a promoter. The following applies: Bel-7404 cells, 10 μM. In kind it is cell-based, human. How it is done: as §4

The source of these data is US10865176B2, “Small molecule modulators of microRNA-34a” (The Chinese University of Hong Kong, priority 2012, dated 2020).

p53 (Homo sapiens, UniProt P04637), sequence (P04637 whole entry): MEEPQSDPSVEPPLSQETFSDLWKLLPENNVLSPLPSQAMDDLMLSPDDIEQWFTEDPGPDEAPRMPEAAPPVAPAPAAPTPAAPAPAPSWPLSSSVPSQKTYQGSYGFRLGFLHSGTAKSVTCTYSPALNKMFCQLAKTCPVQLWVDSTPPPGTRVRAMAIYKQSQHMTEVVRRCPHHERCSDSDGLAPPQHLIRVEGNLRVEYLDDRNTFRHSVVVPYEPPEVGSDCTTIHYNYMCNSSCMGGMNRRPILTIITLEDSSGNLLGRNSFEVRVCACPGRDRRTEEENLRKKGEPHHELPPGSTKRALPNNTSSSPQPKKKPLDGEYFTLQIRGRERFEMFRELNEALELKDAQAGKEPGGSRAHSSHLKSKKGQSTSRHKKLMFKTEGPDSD

Regarding `COc1cc(O)c(C(=O)/C=C/c2cc(OC)c(OC)cc2OC)c(OC)c1` [Rubone, 2′-Hydroxy-2,4,4′,5,6′-pentamethoxychalcone], the “Body weight (g) initial” value was 19.60(95% CI = 18.49 − 20.71)/ g in data set [1] (20 mg/kg group) and 20.00(95% CI = 20.00 − 20.00)/ g in [1] (50 mg/kg group). Moreover, the “Body weight (g) end” value in [1] (20 mg/kg) is listed as 23.60(95% CI = 21.93 − 25.27) g; in data set [1] (50 mg/kg), 23.60(95% CI = 21.03 − 26.17) g. In addition, the “Mice survival (n) initial/end” value in [1] (20 mg/kg, gavage once every two days, 24 d) is listed as 5/5; in data set [1] (50 mg/kg, gavage once every two days, 24 d) it was 5/5. In addition, the “side effect at the end of experiment” value in data set [1] (tumor bearing nude mice, gavage once every two days, 24 d) is on record as “No obvious side effect”. The “growth inhibitory effect of Rubone after p53 knockdown (MTT)” value in the data set on Bel-7404 cells (Bel-7404, 2 μM siRNAs targeting p53, 10 μM Rubone) is recorded as “significantly reversed by knocking down p53”. Besides, the “cell growth (MTT)” value is “significantly inhibited the growth” with Bel-7404 cells (Bel-7404, 10 μM) and “inhibited the growth of HCC cells slightly” with HCC cells. Moreover, the “effect of miR-34a inhibitors on growth inhibition by Rubone (MTT)” value in the data set on Bel-7404 cells (Bel-7404, 10 μM Rubone with 2 μM miR-34a inhibitors, 72 h) is reported as “reversed the growth inhibitory effect”. In addition, the “effect of miR-34a mimics on chemosensitivity to Rubone (MTT)” value with Bel-7404 cells (Bel-7404, 10 μM Rubone with 2 μM miR-34a mimics, 72 h) is given as “enhanced the chemosensitivity”. In addition, in the data set on Cyclin D1 and Bcl-2 [2], the “Cyclin D1 and Bcl-2 expression in xenografted tumors” value was “down-regulated”. For the same compound, in the data set on Hep3B cells, the “growth rate (MTT)” value is “little changes in the growth rate”. Moreover, the p53 expression result in the data set on p53 [3] is “not affected”. In data set [4] (1 μM, control group 42.33, p=0.0036), this compound displayed a tube score of 3.667. For the same compound, the tube formation entry in data set [4] (2 μM) is reported as “no tubes formed at all”. Further, the “mRNA and protein levels of Cyclin D1 and Bcl-2” value in the data set with Cyclin D1 and Bcl-2 [5] (HepG2 cells) is on record as “significantly reduced”; in the data set with Cyclin D1 and Bcl-2 [5] (Huh7 cells), “significantly reduced”. Moreover, the “expression levels of CDK6, FOXP, Notch1 and Sirtuin” value in [6] (HepG2 cells) and in [6] (Huh7 cells) was “decreased” each time. In addition, the “p53 occupancy on miR-34a promoter” value on p53 [7] and in the data set on p53 [8] was “significantly increased p53 occupancy” throughout.
